From PMC9131871, “Impact of Micropolymorphism Outside the Peptide Binding Groove in the Clinically Relevant Allele HLA-C*14 on T Cell Responses in HIV-1 Infection” (Journal of Virology, 2022)

Columns and labels:
HLA-C*14:02 = HLA-C*14:02 (Homo sapiens, UniProt P10321, A176E/A330V/A35S/A97T/C350S/D114A/D33S/L171W/L180R/L218V/M285V/M309V/M331V/P208H/Q277E/Q291P/R121W/R243W/S123F/S297R/S48A/T329A/T363A/V319A); test: HLA stabilization assay on RMA-S-C1402 cells; type: cell-based; settings: 100 μM peptide, 26°C 1 h then 37°C 3 h, MAb DT-9 staining, flow cytometry, triplicate assays
Text: (§1) We next sought to confirm the HLA-C*14:02/C*14:03 restriction of the HIV-1 peptides identified by LC-MS/MS. First, we tested their ability to bind to HLA-C*14:02 or HLA-C*14:03 using HLA stabilization assays. Of the 25 HIV-1 peptides, three Env peptides, Env SI8, Env AM11, and Env VM9, are located in variable regions V2 and V3. In addition, Pol AF10, Pol PF8, Pol VWL9, and Env YI9 are located in regions where high sequence variation is reported in the LANL database. Therefore, we excluded these peptides from further analysis. The other 18 peptides were synthesized and tested for binding to HLA-C*14:02/C*14:03 by analyzing their ability to stabilize surface HLA expression on TAP-defective RMA-S cell lines expressing HLA-C*14:02 (RMA-S-C1402) or HLA-C*14:03 (RMA-S-C1403). These RMA-S cell lines express equivalent levels of HLA-C*14:02 and HLA-C*14:03 on the cell surface at 26°C, and surface HLA expression declines to very low levels when the cells are warmed to 37°C in the absence of exogenously added stabilizing peptides (Fig. 2A). Peptide binding was determined by evaluating whether HLA-I expression was stabilized in the presence of 100 μM peptide.
(§2) FIG 2 HLA-C*14:02/14:03 binding of HIV-1 peptides eluted from NL4-3-infected .221-C1402 and .221-C1403 cells as assessed by HLA stabilization assay using RMA-S cell lines. (A) Histogram plots showing surface expression of HLA-C*14:02 or HLA-C*14:03 on RMA-S-C1402 or RMA-S-C1403 cells at 26°C and after cells cultured at 26°C had been warmed to 37°C for 3 h. MFI values of cells cultured at 26°C were 27.4 for HLA-C*14:02 and 28.1 for HLA-C*14:03. MFI values of cells cultured at 37°C for 3 h were 5.0 for HLA-C*14:02 and 6.54 for HLA-C*14:03. (B) Analysis of binding of 14 HIV-1 NL4.3 peptides identified by LC-MS/MS to HLA-C*14:02 (blue) or HLA-C*14:03 (red) as measured in HLA class I stabilization assays using RMA-S-C1402 or RMA-S-C1403 cells. (C) Analysis of binding of 9 additional variant peptides to HLA-C*14:02 (blue) or C*14:03 (red). For panels B and C, peptides were tested at a concentration of 100 μM. Results are plotted as percent surface HLA-I expression relative to that at 26°C, calculated as the ratio of the MFI of peptide-pulsed RMA-S-C1402 or RMA-S-C1403 cells to that of control (non-peptide-pulsed) cells kept at 26°C, multiplied by 100. Means and standard deviations (SDs) from triplicate assays are shown. Statistical analyses were performed by unpaired t test. The P values were corrected for multiple testing. *, P < 0.05 and q < 0.05; **, P < 0.01 and q < 0.03; ***, P < 0.001 and q < 0.005.
(§3) The relative affinity of peptide binding to HLA-C*14:02 and -C*14:03 was examined using RMA-S-C1402 and RMA-S-C1403 cells as previously described ([15]). Briefly, RMA-S cells were cultured at 26°C for 16 h, pulsed with peptides at 26°C for 1 h, and subsequently incubated at 37°C for 3 h. Staining of cell surface HLA-C molecules was performed with the HLA-C-reactive monoclonal antibody (MAb) DT-9 ([48]), a gift from Mary Carrington, NIH, and fluorescein isothiocyanate (FITC)-conjugated sheep anti-mouse IgG (Jackson ImmunoResearch). Staining data were acquired on a FACSCanto II instrument (BD Biosciences) and analyzed using FlowJo 10.7.1 software. Relative HLA expression was calculated as the ratio of the mean fluorescence intensity (MFI) of peptide-pulsed RMA-S-C1402 cells or RMA-S-C1403 cells to that of control (non-peptide-pulsed) cells kept at 26°C, multiplied by 100 to express the values for peptide-pulsed cells as a percentage of that for the control cells at 26°C.

HLA-C*14:03 = HLA-C*14:03 (Homo sapiens, UniProt P10321, A176E/A330V/A35S/A97T/C350S/D114A/D33S/L171W/L180R/L218V/M285V/M309V/M331V/P208H/Q277E/Q291P/R121W/R243W/R45H/S123F/S297R/S48A/T329A/T363A/V319A); test: HLA stabilization assay on RMA-S-C1403 cells; type: cell-based; settings: 100 μM peptide, 26°C 1 h then 37°C 3 h, MAb DT-9 staining, flow cytometry, triplicate assays
Text: as §1, §2, §3

[1] = test system: T cells of a volunteer enrolled in an HIV vaccine trial; settings: cited from earlier work
Text: We identified 6 HLA-C*14:02/C*14:03 epitopes in the present study. Five of these peptides were detected by LC-MS/MS in HLA-I eluates from both HLA-C*14:02^+ and HLA-C*14:03^+ .221 cells infected with HIV-1, and T cells specific for all 6 epitopes effectively recognized both HIV-1-infected HLA-C*14:02^+ and HLA-C*14:03^+ .221 cells. […] Responses to two of these peptides, Gag LY9 and Nef YT9, were identified in a previous study that analyzed T cell responses ...

Row | Sequence | binding to HLA-C*14:02 (stabilization of surface HLA expression) (HLA-C*14:02) | binding to HLA-C*14:03 (stabilization of surface HLA expression) (HLA-C*14:03) | HLA-C*14-restricted HIV-1 epitope status [1]
1 | FHHMAREK [NefFL8-4M8K, variant of Nef FL8, FHHMAREK, present in Japanese cohort viruses] | detectable binding to the HLA-C*14 molecules with the exception of NefFL8-4M8K | detectable binding to the HLA-C*14 molecules with the exception of NefFL8-4M8K | –
2 | LYNTVATL [Gag LL8-5V7T] | – | – | identified as an HLA-C*14-restricted HIV-1 epitope
